Results from PMC4901321, “Screening of saponins and sapogenins from Medicago species as potential PPARγ agonists and X-ray structure of the complex PPARγ/caulophyllogenin” (Scientific Reports, 2016).
Entries after “also recorded” stand apart in the source; their conditions may differ. Where two headings read alike, the source gives them in different places. Each block holds one compound with its values, some of them ahead of it.

Tests used:
PPARγ LBD [1] = target: T1, PPARγ LBD (Homo sapiens, UniProt P37231); assay: Isothermal titration calorimetry; type: binding
T1 construct: PPARγ LBD was expressed as N-terminal His-tagged proteins using a pET28 vector; His tag (N, cleaved yes); made in house; host or cells: E. coli BL21 DE3
T1 sequence (P37231 238-503 limits assumed): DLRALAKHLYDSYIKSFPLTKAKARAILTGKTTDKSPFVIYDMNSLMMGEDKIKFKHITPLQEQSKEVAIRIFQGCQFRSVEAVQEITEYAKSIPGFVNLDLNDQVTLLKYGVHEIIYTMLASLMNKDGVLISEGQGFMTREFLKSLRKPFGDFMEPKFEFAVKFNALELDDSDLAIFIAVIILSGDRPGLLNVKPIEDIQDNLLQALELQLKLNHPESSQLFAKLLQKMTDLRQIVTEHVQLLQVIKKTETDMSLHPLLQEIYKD
Method: ITC experiments were performed at 22 °C by using a ITC200 microcalorimeter (MicroCal, Inc., Northampton, MA, USA). […] DMSO was added to the protein solution at the same percentage of the ligand solution (2%) for the experiment with SAP19. The protein solution (50 μM) was placed in the sample cell, and ligand solution (500 μM) was loaded into the syringe injector (PPARγ 40 μM and the ligand 400 μM for the experiment with 13-HODE) . The titrations involved 19 injections of 2 μL each at 150 s intervals. A reference titration of ligand into buffer was used to correct for heats of dilution. Thermodynamic data was processed with Origin 7.0 software (MicroCal). Fitting the isotherms with one-site binding model yealded the values of the association constant (Ka).

PPARγ LBD [2] = target: T1, PPARγ LBD; assay: Surface plasmon resonance, PPARγ receptor/saponin or sapogenin interactions; type: binding; details: for Kd: koff/kon; for affinity to the nuclear receptor: in words
Method: PPARγ LBD was expressed as N-terminal His-tagged proteins using a pET28 vector and then purified as previously described[40]. Briefly, freshly transformed E. coli BL21 DE3 were grown in LB medium with 30 μg of kanamycin/mL at 310 K to an OD of 0.6. […] Cells were harvested and resuspended in a 20 mL/liter culture of Buffer A (20 mM Tris, 150 mM NaCl, 10% glycerol, 1 mM Tris 2-carboxyethylphosphine HCl (TCEP), pH 8) in the presence of protease inhibitors (Complete Mini EDTA-free; Roche Applied Science). Cells were sonicated, and the soluble fraction was isolated by centrifugation (35,000 × g for 45 min). The supernatant was loaded onto a Ni^2+ -nitrilotriacetic acid column (GE Healthcare) and eluted with a gradient of imidazole 0–300 mM in Buffer A (batch method). The pure protein was identified by SDS PAGE. The protein was then dialyzed over buffer A to remove imidazole, and it was cleaved with thrombin protease (GE Healthcare) (10 units/mg) at room temperature for 2 h. The digested mixture was reloaded onto a Ni^2+ -nitriloacetic acid column to remove His tag and the undigested protein. The flow-through was loaded onto a Q-Sepharose HP column (GE Healthcare) and eluted with a gradient of NaCl 0–500 mM in Buffer B (20 mM Tris, 10% glycerol, 1 mM TCEP, pH 8) with a BioLogic DuoFlow FPLC system (Bio-Rad Laboratories, Italy). Finally, the protein was purified by gel-filtration chromatography on a HiLoad Superdex 75 column (GE Healthcare) and eluted with Buffer C (20 mM Tris, 1 mM TCEP, 0.5 mM EDTA, pH 8). The protein was then concentrated at 8 mg/mL using Amicon centrifugal concentrators with a 10 kDa cutoff membrane (Millipore, USA). Part of the protein was used for SPR experiments.
Surface plasmon resonance analyses were performed by using Pioneer AE optical biosensor equipped with COOH5 chips (SensiQ). PPARγ surfaces were prepared by using standard amine-coupling procedures[45] and HBS (Hepes-buffered saline: 20 mM Hepes, 150 mM sodium chloride, 0.005% P20, pH 7.4) as the running buffer. Flow cells were activated for 7 min by injecting 140 μL of 50 mM N-hydroxysuccinimide (NHS):200 mM ethyl-3(3-dimethylamino) propyl carbodiimide (EDC). Fifty μL of a 0.25 mg/mL PPARγ solution (in 10 mM sodium acetate, pH 5.0) were injected for 5 min at 10 μL/min on channels 1 and 3 (channel 2 was used as ref. [3], for a duplicate experiment), followed by a 70-μL injection of ethanolamine to block any remaining activated groups on the surface. […] The screening of the analytes (saponins and sapogenins) was performed using HBS without P20, with 1 mM DTT and 2% DMSO. To collect detailed kinetic data the OneStep[46][47][48] protocol was used, injecting the analytes at a flow rate of 50 μL/min and at the concentration of 100 μM (50 μM for 14 and 15) over the three channels at 20 °C (association phase of 180 s). Five buffer blanks were injected for double referencing . […] A DMSO calibration plot was constructed (buffer sample containing 1–3% (vol/vol) DMSO) to correct for bulk refractive index shifts[49]. Data were collected at a rate of 20 Hz. All sensorgrams were processed by using double referencing[50]. First, the responses from the reference surface (channel 2) were subtracted from the binding responses collected over the reaction surfaces to correct for bulk refractive index changes.

HepG2 cells = assay: MTT assay for cell viability; type: cell-based, human; details: for IC50: read-out: IC50 (concentration that reduces the cell viability by 50%)
Method: Human hepatocellular liver carcinoma cell line HepG2 (Interlab Cell Line Collection, Genoa, Italy) was cultured in Minimum Essential Medium (MEM) containing 10% heat-inactivated fetal bovine serum, 100 U·mL^−1 of penicillin G, and 100 μg·mL^−1 of streptomycin sulfate at 37 °C in a humidified atmosphere of 5% CO2.
Cell viability was measured using the MTT assay. HepG2 cells were seeded at a density of 1·10^5 cells/well into 96-well flat bottom culture plates containing test compounds (ranging from 200 nM to 100 μM final concentration), in a final volume of 100 μL. […] Control wells lacked inhibitor. After 24 h of incubation at 37 °C in a 5% CO2 atmosphere, 3-(4,5-dimethylthiazole-2-yl)-2,5-diphenyltetrazolium bromide (MTT, 5 mg/mL stock solution) was added to a final concentration of 0.5 mg/mL. To control for background absorbance, six wells of cells were lysed by adding Triton X-100 (0.1% v/v final concentration) immediately prior to the addition of MTT reagent. After incubation under the same conditions for further 3–4 h, the culture medium was removed, the insoluble product dissolved by the addition of 100 μL of solvent (50% DMSO, 50% EtOH v/v), and the absorbance of the well was measured at 570 nm using a PERKIN–ELMER Victor V^3 plate reader. Cell growth inhibition was then calculated using the following Equation,
where V% is the percentage of cell viability, A is the absorbance of treated cultures, Ab is the absorbance of background control, and Ac is the absorbance of control cultures.

PPARγ [3] = system: PPARγ; design: method as in PMID 25487878; details: cited from earlier work
PPARγ [4] = target: T2, PPARγ (Homo sapiens, UniProt P37231); assay: Displacement experiments against rosiglitazone (antagonist behavior, transactivation); type: cell-based
T2 construct: expressed in transfected cells; host or cells: HepG2
T2 sequence (P37231 238-503 limits assumed): T1 sequence (P37231 238-503 limits assumed)
Method: The antagonist behavior of the above compounds was also evaluated in displacement experiments against rosiglitazone.
For transactivation assays, 1·10^5 cells per well were seeded in a 96-well plate and transfected after 24 h with K2 Transfection System (Biontex Laboratories GmbH), according to the manufacturer’s protocol using 0.20 μg/well of DNA. Cells were transfected with expression plasmids encoding the fusion protein Gal4-PPARα-LBD or Gal4-PPARγ-LBD, pGal5TKpGL3, and pCMVβgal to normalize the transfection efficacy. 24 h after transfection, medium was replaced with fresh complete growth medium supplemented with test compounds (ranging from 200 nM to 100 μM), reference compounds Wy-14,643 (10 μM) and rosiglitazone (2 μM), or DMSO 0.1%. After further 24 h of incubation cells were lysed and luciferase activity in cell extracts was determined by a luminometer (VICTOR^3 V Multilabel Plate Reader, PerkinElmer, Monza, Italy) and normalized for β-galactosidase activity. Fold induction activity was calculated and plotted using GraphPad Prism5 software.

[5] = ITC fit, OneSites model, Supplementary Fig. S3
[6] = SPR, 20 °C, 1:1 model, for 2:1 model fits the first value (high affinity site), error in parentheses

K (association constant) (PPARγ LBD [1]; [5]): 106000 M⁻¹ | ΔH (PPARγ LBD [1]; [5]): -2.206 kcal/mol | ΔS (PPARγ LBD [1]; [5]): 15.5 cal/mol/deg | ΔH (PPARγ LBD [1]; ITC, 22 °C): -2.21 kcal/mol | −TΔS (PPARγ LBD [1]; ITC, 22 °C): -4.56 kcal/mol | Kd (PPARγ LBD [1]; ITC, 22 °C, one-site model): 9.4 µM
Compound: CCCCC[C@H](O)/C=C/C=C\CCCCCCCC(=O)O [13-(S)-HODE]

Compound: C[C@@H]1O[C@@H](O[C@H]2[C@H](O[C@H]3[C@H](O[C@H]4CC[C@@]5(C)[C@@H](CC[C@]6(C)[C@@H]5CC=C5[C@@H]7CC(C)(C)C[C@@H](O)[C@]7(C)CC[C@]56C)[C@@]4(C)CO)O[C@H](C(=O)O)[C@@H](O)[C@@H]3O)O[C@H](CO)[C@H](O)[C@@H]2O)[C@H](O)[C@H](O)[C@H]1O [SAP17, soyasaponin I]
Koff (PPARγ LBD [2]): 1.68 s⁻¹ | Kd (PPARγ LBD [2]; Kd, SPR, 1:1 model, for 2:1 model fits the first value (high affinity site)): 32.5 µM | cytotoxicity (HepG2 cells; HepG2, concentrations up to 100 μM): did not show cytotoxicity; also recorded: did not show any cytotoxic activity | IC50 (HepG2 cells; Homo sapiens, HepG2, 24 h): > 100 µM

Compound: CC1(C)CC[C@]2(C(=O)O)CC[C@]3(C)C(=CC[C@@H]4[C@@]5(C)CC[C@H](O)[C@@](C)(CO)[C@@H]5CC[C@]43C)[C@@H]2C1 [SAP20, hederagenin]
affinity to the nuclear receptor (PPARγ LBD [2]; SPR): didn’t show affinity | Kd (PPARγ LBD [2]; SPR, 1:1 model, for 2:1 model fits the first value (high affinity site), read-out: Kd): > 1000 µM

affinity to the nuclear receptor (PPARγ LBD [2]; SPR): didn’t show affinity
Compound: CC1(C)CC[C@]2(C(=O)O)CC[C@]3(C)C(=CCC4[C@@]5(C)C[C@H](O)[C@H](O)[C@@](C)(CO)C5CC[C@]43C)C2C1 (stereo partly drawn) [SAP21, bayogenin]

affinity to the nuclear receptor (PPARγ LBD [2]; SPR): didn’t show affinity
Compound: CC1(C)C[C@@H](O)[C@]2(C)CC[C@]3(C)C(=CC[C@@H]4[C@@]5(C)CC[C@H](O)[C@](C)(CO)[C@@H]5CC[C@]43C)[C@@H]2C1 [SAP24, soyasapogenol B]

Compound: CC(C)=CCC[C@](C)(O)[C@H]1CC[C@]2(C)[C@@H]1[C@H](O)C[C@@H]1[C@@]3(C)CC[C@H](O)C(C)(C)[C@@H]3[C@@H](O)C[C@]12C [protopanaxatriol]
activity towards PPARγ (PPARγ [3]): antagonist activity

Compound: echinocystic acid [SAP18]
Koff (PPARγ LBD [2]; SPR, 2:1 molecular interaction model, second value in cell (second site)): 0.715(0.002) s^−1 | Koff (PPARγ LBD [2]; [6]): 0.0014 s⁻¹ | Kon (PPARγ LBD [2]; [6]): 144.8(0.2) M^−1s^−1 | reduction of the effects of rosiglitazone (PPARγ [4]; at 5 μM): 40% | antagonist behavior towards PPARγ (PPARγ [4]; in words): antagonist activity | IC50 (HepG2 cells; HepG2, MTT, 24 h): 4.1 ± 0.4 µM
